What was measured:
[1] = target: T1, PPPDE2 (Homo sapiens, UniProt Q6ICB0); assay: fluorogenic assay coupled to beta-glucosidase; assay type: biochemical; settings: 10 μM substrate, 20 μg beta-glucosidase, pH 5.0, 37°C
T1 sequence (Q6ICB0 1-168): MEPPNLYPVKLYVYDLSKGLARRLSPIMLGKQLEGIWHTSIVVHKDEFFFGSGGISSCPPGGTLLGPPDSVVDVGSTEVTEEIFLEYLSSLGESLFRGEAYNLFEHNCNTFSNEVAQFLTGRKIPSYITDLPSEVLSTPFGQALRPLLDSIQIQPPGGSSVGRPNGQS

[2] = target: PPPDE1 (Homo sapiens, UniProt Q9BSY9); assay: fluorogenic assay coupled to beta-glucosidase; assay type: biochemical; settings: 10 μM substrate, 20 μg beta-glucosidase, pH 5.0, 37°C
PPPDE1, sequence (Q9BSY9 whole entry): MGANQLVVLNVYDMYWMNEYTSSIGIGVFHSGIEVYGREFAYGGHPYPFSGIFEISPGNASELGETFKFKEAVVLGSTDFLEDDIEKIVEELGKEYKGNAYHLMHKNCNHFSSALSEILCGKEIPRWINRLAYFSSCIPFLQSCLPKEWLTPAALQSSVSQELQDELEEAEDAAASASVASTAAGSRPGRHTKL

How did the “fluorogenic assay coupled to beta-glucosidase” value [1] turn out when `CCCCCCCCCCCCCCCC(=O)SC[C@H]1O[C@@H](Oc2ccc3c(C)cc(=O)oc3c2)[C@H](O)[C@@H](O)[C@@H]1O` [MU-6S-palm-βGlc, 4-methylumbelliferyl 6-thio-palmitate-β-D-glucopyranoside] was run?
Its value is “both showed high S-depalmitoylation activity by assaying DPP-5 or MU-6S-palm-βGlc”.

And the “fluorogenic assay coupled to beta-glucosidase” value [2]?
Its value is “both showed high S-depalmitoylation activity by assaying DPP-5 or MU-6S-palm-βGlc”.

From PMC9012467 (Science Advances, 2022)
